The assay has as its target T1, Human TREX1 enzyme (amino acids 1-242) (Homo sapiens, UniProt Q9NSU2).
T1 construct: Human TREX1 enzyme (amino acids 1-242)
T1 sequence (Q9NSU2 1-242): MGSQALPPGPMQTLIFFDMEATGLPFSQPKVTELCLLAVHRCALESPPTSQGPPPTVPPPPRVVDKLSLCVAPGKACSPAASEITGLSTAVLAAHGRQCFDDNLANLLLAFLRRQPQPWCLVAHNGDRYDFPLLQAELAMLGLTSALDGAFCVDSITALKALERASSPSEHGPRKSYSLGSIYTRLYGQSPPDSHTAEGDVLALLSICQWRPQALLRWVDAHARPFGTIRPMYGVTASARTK
Nature of the assay: Human TREX1 enzymatic assay with dsDNA native oligonucleotide (Picogreen fluorescence). The format is biochemical. The settings on record: 2 mM dithiothreitol in assay buffer; 50 nM dsDNA oligonucleotide; 30 min preincubation at 25° C.; read-out: TREX1/Human + DTT IC50 AVG. In short, it runs like this:
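Remaining dsDNA quantified by Picogreen fluorescence after EDTA quench, with no-enzyme and DMSO wells as controls. Reactions used 50 nM annealed oligonucleotide for 5–15 min at 25 °C, after a 30 min compound–enzyme preincubation (0.8–0.16 nM TREX1; 2% DMSO; pH 7.7 Tris, 5 mM MgCl2).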

For the compound `COc1cc(-c2nc3ccc(-c4ncno4)cc3n2C2(C)COC2)c(F)c(O)c1O` [Example 181, 3-fluoro-6-methoxy-4-[1-(3-methyloxetan-3-yl)-6-(1,2,4-oxadiazol-5-yl)-1H-1,3-benzodiazol-2-yl] benzene-1,2-diol], the IC50 is at most 0.1 µM. For `CNC(=O)c1cccc2c1nc(-c1cc(OC)c(O)c(O)c1F)n2C1(C)COC1` [Example 214, 2-(2-fluoro-3,4-dihydroxy-5-methoxyphenyl)-N-methyl-1-(3-methyloxetan-3-yl)-1H-1,3-benzodiazole-4-carboxamide] the value was 0.1 to 1 µM. For `COc1cc(-c2nc3ccc(S(=O)(=O)Nc4ccccc4)cc3n2C(CO)CCl)cc(O)c1O` (centres unmarked) [Example 42, 1-(1-chloro-3-hydroxypropan-2-yl)-2-(3,4-dihydroxy-5-methoxyphenyl)-N-phenyl-1H-benzo[d]imidazole-6-sulfonamide] the value was 10 to 100 µM. For `COc1cc(-c2nc3cc(N(C)C(C)=O)ccc3n2C2(C)COC2)c(F)c(O)c1O` [Example 195], the IC50 is 0.1 to 1 µM. For `COc1cc(-c2nc3cc(NC(=O)c4ccncc4)ccc3n2C2(C)COC2)c(F)c(O)c1O` [Example 306, N-(2-(2-fluoro-3,4-dihydroxy-5-methoxyphenyl)-1-(3-methyloxetan-3-yl)-1H-benzo[d]imidazol-5-yl)isonicotinamide] the value was at most 0.1 µM; for `COc1cc(-c2nc3cc(N4CCN(C(=O)c5cccc(C)c5)CC4)ccc3[nH]2)cc(O)c1O` [Example 154, (4-(2-(3,4-dihydroxy-5-methoxyphenyl)-1H-benzo[d]imidazol-5-yl)piperazin-1-yl)(m-tolyl)methanone], 1 to 10 µM; for `COc1cc(-c2nc3ccc(C(=O)NC4CNC4)cc3n2C2(C)COC2)c(F)c(O)c1O` [Example 259, N-(azetidin-3-yl)-2-(2-fluoro-3,4-dihydroxy-5-methoxyphenyl)-1-(3-methyloxetan-3-yl)-1H-1,3-benzodiazole-6-carboxamide], at most 0.1 µM. For the compound `COc1cc(-c2nc3ccccc3n2C2COC2)c(C)c(O)c1O` [Example 1, 6-methoxy-3-methyl-4-(1-(oxetan-3-yl)-1H-benzo[d]imidazol-2-yl)benzene-1,2-diol], the IC50 is 10 to 100 µM. Consider `COc1cc(-c2nc3cc(N4CCC4)c(C)cc3[nH]2)cc(O)c1O` [Example 164, 5-(5-(azetidin-1-yl)-6-methyl-1H-benzo[d]imidazol-2-yl)-3-methoxybenzene-1,2-diol], for which the IC50 lay within 1 to 10 µM.

On to `O=C(O)c1ccc(-c2nc3cc(N4CCN(C(=O)c5ccccc5)CC4)ccc3[nH]2)cc1O` [Example 118, 4-(5-(4-benzoylpiperazin-1-yl)-1H-benzo[d]imidazol-2-yl)-2-hydroxybenzoic acid], for which the IC50 was in the range of 10 to 100 µM. As to `COc1cc(-c2nc3ccccc3n2C2(C)COC2)c(F)c(O)c1O` [Example 232, 3-fluoro-6-methoxy-4-(1-(3-methyloxetan-3-yl)-1H-benzo[d]imidazol-2-yl)benzene-1,2-diol], the IC50 was in the range of 0.1 to 1 µM.

Regarding `COc1cc(-c2nc3cc(N4CCN(C(=O)c5ccccn5)CC4)ccc3[nH]2)cc(O)c1O` [Example 97, (4-(2-(3,4-dihydroxy-5-methoxyphenyl)-1H-benzo[d]imidazol-5-yl)piperazin-1-yl)(pyridin-2-yl)methanone], the IC50 is 10 to 100 µM.

Turning to `COc1cc(-c2nc3ccccc3n2C2CCCC2)c(C)c(O)c1O` [Example 148, 4-(1-cyclopentyl-1H-benzo[d]imidazol-2-yl)-6-methoxy-3-methylbenzene-1,2-diol], the IC50 fell in the range of 1 to 10 µM. As to `COc1cc(-c2nc3ccccc3n2C2CCC2)c(C)c(O)c1O` [Example 168, 4-(1-cyclobutyl-1H-benzo[d]imidazol-2-yl)-6-methoxy-3-methylbenzene-1,2-diol], the IC50 lay within 0.1 to 1 µM. As to `COc1cc(-c2nc3c(C)cccc3[nH]2)cc(O)c1O` [Example 21, 3-methoxy-5-(4-methyl-1H-benzo[d]imidazol-2-yl)benzene-1,2-diol], the IC50 was above 100 µM. To `COc1cc(-c2nc3ccc(C(=O)Nc4ccon4)cc3n2C2(C)COC2)c(F)c(O)c1O` [Example 258, 2-(2-fluoro-3,4-dihydroxy-5-methoxyphenyl)-1-(3-methyloxetan-3-yl)-N-(1,2-oxazol-3-yl)-1H-1,3-benzodiazole-6-carboxamide] belongs at most 0.1 µM; to `COc1cc(-c2nc3cc(N4CCC(N5CCCCC5)CC4)ccc3[nH]2)cc(O)c1O` [Example 160, 5-(5-([1,4′-bipiperidin]-1′-yl)-1H-benzo[d]imidazol-2-yl)-3-methoxybenzene-1,2-diol], above 100 µM. Regarding `COc1cc(-c2nc3ccccc3n2C2CC2)c(C)c(O)c1O` [Example 324, 4-(1-cyclopropyl-1H-benzo[d]imidazol-2-yl)-6-methoxy-3-methylbenzene-1,2-diol], the IC50 is 1 to 10 µM.

Turning to `COc1cc(-c2nc3cnccc3n2C2COC2)cc(O)c1O` [Example 47, 3-methoxy-5-(1-(oxetan-3-yl)-1H-imidazo[4,5-c]pyridin-2-yl)benzene-1,2-diol], the IC50 lay within 10 to 100 µM.

Take `COc1cc(-c2nc3ccccc3n2C(C)(C)C)c(C)c(O)c1O` [Example 227, 4-(1-(tert-butyl)-1H-benzo[d]imidazol-2-yl)-6-methoxy-3-methylbenzene-1,2-diol]: the IC50 lay in the range of 0.1 to 1 µM.

With `COc1cc(-c2nc3cc(N4CC(F)C4)ccc3[nH]2)cc(O)c1O` [Example 145, 5-(5-(3-fluoroazetidin-1-yl)-1H-benzo[d]imidazol-2-yl)-3-methoxybenzene-1,2-diol], the IC50 is above 100 µM. For `COc1cc(-c2nc3ccc(C(=O)NC4COC4)cc3n2C2(C)COC2)c(F)c(O)c1O` [Example 254, 2-(2-fluoro-3,4-dihydroxy-5-methoxyphenyl)-1-(3-methyloxetan-3-yl)-N-(oxetan-3-yl)-1H-benzo[d]imidazole-6-carboxamide] the value was at most 0.1 µM. For the compound `COc1cc(-c2nc3cc(N4CCN(C(=O)c5ccccc5C)CC4)ccc3[nH]2)cc(O)c1O` [Example 99, (4-(2-(3,4-dihydroxy-5-methoxyphenyl)-1H-benzo[d]imidazol-5-yl)piperazin-1-yl)(o-tolyl)methanone], the IC50 lay within 1 to 10 µM. Regarding `COc1cc(-c2nc3ccccc3n2C2CNC2)c(C)c(O)c1O` [Example 165, 4-(1-(azetidin-3-yl)-1H-benzo[d]imidazol-2-yl)-6-methoxy-3-methylbenzene-1,2-diol], the IC50 was in the range of 10 to 100 µM. Take `COc1cc(-c2nc3ccccc3n2[C@H]2COC[C@@H]2O)c(C)c(O)c1O` [Example 170, 4-(1-((3S,4R)-4-hydroxytetrahydrofuran-3-yl)-1H-benzo[d]imidazol-2-yl)-6-methoxy-3-methylbenzene-1,2-diol]: the IC50 was in the range of 10 to 100 µM.

With `COc1cc(-c2nc3cc(O)ccc3n2C2CCC2)c(C)c(O)c1O` [Example 334, 4-(1-cyclobutyl-5-hydroxy-1H-benzo[d]imidazol-2-yl)-6-methoxy-3-methylbenzene-1,2-diol], the IC50 was in the range of 0.1 to 1 µM. For `COc1cc(-c2nc3cc(N4CCOCC4)cnc3[nH]2)cc(O)c1O` [Example 70, 3-methoxy-5-(6-morpholino-3H-imidazo[4,5-b]pyridin-2-yl)benzene-1,2-diol], the IC50 is above 100 µM.

For the compound `COc1cc(-c2nc3cc(N4CCC4)ccc3[nH]2)c(C)c(O)c1O` [Example 189, 4-(5-(azetidin-1-yl)-1H-benzo[d]imidazol-2-yl)-6-methoxy-3-methylbenzene-1,2-diol], the IC50 was in the range of 1 to 10 µM. Regarding `COc1cc(-c2nc3cc(N4CCN(C(=O)c5ccccc5-c5ccccc5)CC4)ccc3[nH]2)cc(O)c1O` [Example 105, [1,1′-biphenyl]-2-yl(4-(2-(3,4-dihydroxy-5-methoxyphenyl)-1H-benzo[d]imidazol-5-yl)piperazin-1-yl)methanone], the IC50 was above 100 µM. For the compound `COc1cc(-c2nc3cc(N4CCN(C)C4=O)ccc3n2C2(C)COC2)c(F)c(O)c1O` [Example 197, 1-(2-(2-fluoro-3,4-dihydroxy-5-methoxyphenyl)-1-(3-methyloxetan-3-yl)-1H-benzo[d]imidazol-5-yl)-3-methylimidazolidin-2-one], the IC50 lay in the range of 0.1 to 1 µM. `CNc1ccc2c(c1)nc(-c1cc(OC)c(O)c(O)c1F)n2C1(C)COC1` [Example 316, 3-fluoro-6-methoxy-4-(5-(methylamino)-1-(3-methyloxetan-3-yl)-1H-benzo[d]imidazol-2-yl)benzene-1,2-diol]: the IC50 lay in the range of 0.1 to 1 µM. On to `COc1cc(-c2nc3cc(N4CCN(c5cccnc5)CC4)ccc3[nH]2)cc(O)c1O` [Example 62, 3-methoxy-5-(5-(4-(pyridin-3-yl)piperazin-1-yl)-1H-benzo[d]imidazol-2-yl)benzene-1,2-diol], for which the IC50 fell in the range of 1 to 10 µM. To `COc1cc(-c2nc3cc(-c4ccccc4)ccc3[nH]2)cc(O)c1O` [Example 69, 3-methoxy-5-(5-phenyl-1H-benzo[d]imidazol-2-yl)benzene-1,2-diol] belongs above 100 µM; to `COC(=O)c1ccc2nc(-c3cc(OC)c(O)c(O)c3F)n(C3(C)COC3)c2c1` [Example 211, methyl 2-(2-fluoro-3,4-dihydroxy-5-methoxyphenyl)-1-(3-methyloxetan-3-yl)-1H-benzo[d]imidazole-6-carboxylate], at most 0.1 µM. As for `COc1cc(-c2nc3cc(N4CCC4)ccc3[nH]2)c(C2CC2)c(O)c1O` [Example 242, 4-(5-(azetidin-1-yl)-1H-benzo[d]imidazol-2-yl)-3-cyclopropyl-6-methoxybenzene-1,2-diol], the IC50 is above 100 µM.

The values above are taken from US20230234943A1, “TREX1 INHIBITORS AND USES THEREOF” (Tempest Therapeutics, Inc., priority 2020, published 2023).
